Experimental data reported in US20250275928A1, “NANOPARTICLE-BASED ABUSE-DETERRENT FORMULATIONS AND METHODS OF MAKING AND USING” (Purdue Research Foundation, priority 2021, published 2025).
In brackets after ≈: the same amount, converted by molar mass.

Columns and labels:
[1] = Chemical extractability from nanocapsules by household solvents
[2] = Equilibrium solubility of thebaine in ethanol; type: physicochemical; settings: organic solvent or mixture, thermodynamic from solid
Method: Chemical extractability of thebaine, a model opioid drug, as a mixture with a non-gel forming excipient, Avicel pH 102, or selected gel-forming polymers, was tested using absolute ethanol. […] Physical mixtures of thebaine (600 μg) with 150 mg Avicel or Avicel with selected polymers (80 mg XG, 20 mg XG+30 mg HEC, or 20 mg XG+60 mg CS) mg) were extracted in 1 mL of absolute ethanol for 1 h. Free thebaine without any excipients was also tested for comparison.

[3] = Dissolution in simulated gastric fluid; settings: after 12 and 24 h
[4] = Thermal stability of thebaine (TGA, heating); type: physicochemical

Compound: COC1=CC=C2[C@H]3Cc4ccc(OC)c5c4[C@@]2(CCN3C)[C@H]1O5 [thebaine]
- solubility in household solvents ([1]; all tested solvents except for 0.9% NaCl and 0.1 M NaOH): soluble
- dissolution in household solvents ([1]; most solvents at equivalent concentrations): dissolves completely
- solubility thermodynamic at 24 h ([2]; in 24 h): 10.4 mg/mL (≈ 33.4 mM)
- solubility thermodynamic at 72 h ([2]; in 72 h): 10.5 mg/mL (≈ 33.7 mM)
- stability in SGF [3]: degraded
- drug that withstood heating ([4]; 180° C. for 10 min, drug alone): 86.9%
- temperature at which decomposition began (TGA) ([4]; thermogravimetric analysis): around 200 °C
